According to patent US20240254087A1, “SELECTIVE, PARTIAL, AND ARRESTIN-BIASED 5-HT2A AGONISTS WITH UTILITY IN VARIOUS DISORDERS” (Saint Joseph's University, priority 2021, published 2024):

How the values were obtained:
5-HT2A [1] = test: Ca2+ flux assay, 5-HT2A; format: cell-based, human; conditions: Gq/11 Ca2+ mobilization; higher number = skewed towards 5-HT2A
5-HT1A = target: T1, 5-HT1A (Homo sapiens, UniProt P08908); test: Competitive radioligand binding (NIMH PDSP)
T1 sequence (P08908 1-422): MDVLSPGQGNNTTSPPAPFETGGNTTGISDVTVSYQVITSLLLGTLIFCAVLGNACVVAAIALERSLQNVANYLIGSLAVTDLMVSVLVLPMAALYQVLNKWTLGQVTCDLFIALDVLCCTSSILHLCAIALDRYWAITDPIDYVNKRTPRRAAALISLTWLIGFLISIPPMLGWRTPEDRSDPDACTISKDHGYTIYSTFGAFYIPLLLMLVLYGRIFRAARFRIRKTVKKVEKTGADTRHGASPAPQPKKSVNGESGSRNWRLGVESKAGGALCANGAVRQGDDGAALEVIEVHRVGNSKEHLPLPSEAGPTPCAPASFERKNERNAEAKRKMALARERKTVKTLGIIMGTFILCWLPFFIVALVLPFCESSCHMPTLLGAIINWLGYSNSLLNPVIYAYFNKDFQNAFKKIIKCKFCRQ

5-HT1B = 5-HT1B (Homo sapiens, UniProt P28222); test: Competitive radioligand binding (NIMH PDSP)
Chain of 5-HT1B (P28222 whole entry, species assumed): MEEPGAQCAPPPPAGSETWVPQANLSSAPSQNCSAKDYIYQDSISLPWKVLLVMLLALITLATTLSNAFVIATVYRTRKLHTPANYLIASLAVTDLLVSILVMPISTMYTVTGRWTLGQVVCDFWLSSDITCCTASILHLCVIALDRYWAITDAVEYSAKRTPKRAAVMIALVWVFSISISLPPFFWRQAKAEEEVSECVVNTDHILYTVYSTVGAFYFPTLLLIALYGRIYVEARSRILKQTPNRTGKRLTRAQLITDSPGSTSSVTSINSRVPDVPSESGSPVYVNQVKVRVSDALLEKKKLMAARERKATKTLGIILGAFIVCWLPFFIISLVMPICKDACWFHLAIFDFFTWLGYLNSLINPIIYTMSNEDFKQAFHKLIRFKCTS

5-HT1D = 5-HT1D (Homo sapiens, UniProt P28221); test: Competitive radioligand binding (NIMH PDSP)
Chain of 5-HT1D (P28221 whole entry, species assumed): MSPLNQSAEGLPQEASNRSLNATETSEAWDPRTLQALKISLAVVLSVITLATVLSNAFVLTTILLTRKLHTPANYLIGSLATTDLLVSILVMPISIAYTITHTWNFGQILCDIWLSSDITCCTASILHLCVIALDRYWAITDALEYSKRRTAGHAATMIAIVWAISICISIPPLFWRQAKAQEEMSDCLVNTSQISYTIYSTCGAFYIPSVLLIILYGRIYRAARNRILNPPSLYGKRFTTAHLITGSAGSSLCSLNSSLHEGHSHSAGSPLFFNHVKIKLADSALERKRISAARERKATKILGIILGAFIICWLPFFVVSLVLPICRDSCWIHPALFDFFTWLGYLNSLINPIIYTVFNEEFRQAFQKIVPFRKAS

5-HT1e = 5-HT1e (Homo sapiens, UniProt P28566); test: Competitive radioligand binding (NIMH PDSP)
Chain of 5-HT1e (P28566 whole entry, species assumed): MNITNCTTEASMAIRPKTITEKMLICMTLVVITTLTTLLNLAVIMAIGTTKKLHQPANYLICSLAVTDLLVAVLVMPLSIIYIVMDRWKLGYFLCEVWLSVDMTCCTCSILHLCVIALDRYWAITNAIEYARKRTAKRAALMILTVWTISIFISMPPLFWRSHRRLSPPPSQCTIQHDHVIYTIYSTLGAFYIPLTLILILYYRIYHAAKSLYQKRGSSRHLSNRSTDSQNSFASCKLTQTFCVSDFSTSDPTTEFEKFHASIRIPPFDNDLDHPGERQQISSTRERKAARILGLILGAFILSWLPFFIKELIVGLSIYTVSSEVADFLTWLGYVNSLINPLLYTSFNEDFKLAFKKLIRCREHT

5-HT2A [2] = target: T2, 5-HT2A (Homo sapiens, UniProt P28223); test: Competitive radioligand binding (NIMH PDSP)
T2 sequence (P28223 whole entry): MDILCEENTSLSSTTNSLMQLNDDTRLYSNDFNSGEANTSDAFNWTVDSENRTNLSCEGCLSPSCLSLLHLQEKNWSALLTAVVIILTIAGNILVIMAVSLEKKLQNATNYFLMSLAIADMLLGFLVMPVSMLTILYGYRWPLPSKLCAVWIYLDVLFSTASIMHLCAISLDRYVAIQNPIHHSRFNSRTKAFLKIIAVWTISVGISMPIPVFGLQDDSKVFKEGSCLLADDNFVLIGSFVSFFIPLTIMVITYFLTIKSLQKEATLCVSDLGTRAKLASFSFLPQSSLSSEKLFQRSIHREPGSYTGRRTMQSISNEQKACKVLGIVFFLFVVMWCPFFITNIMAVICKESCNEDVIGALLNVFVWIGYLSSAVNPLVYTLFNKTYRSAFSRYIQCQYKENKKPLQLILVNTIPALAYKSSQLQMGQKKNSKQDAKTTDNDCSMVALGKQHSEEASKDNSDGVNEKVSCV

5-HT3 = target: T3, 5-HT3 (Homo sapiens, UniProt P46098); test: Competitive radioligand binding (NIMH PDSP)
T3 sequence (P46098 24-478): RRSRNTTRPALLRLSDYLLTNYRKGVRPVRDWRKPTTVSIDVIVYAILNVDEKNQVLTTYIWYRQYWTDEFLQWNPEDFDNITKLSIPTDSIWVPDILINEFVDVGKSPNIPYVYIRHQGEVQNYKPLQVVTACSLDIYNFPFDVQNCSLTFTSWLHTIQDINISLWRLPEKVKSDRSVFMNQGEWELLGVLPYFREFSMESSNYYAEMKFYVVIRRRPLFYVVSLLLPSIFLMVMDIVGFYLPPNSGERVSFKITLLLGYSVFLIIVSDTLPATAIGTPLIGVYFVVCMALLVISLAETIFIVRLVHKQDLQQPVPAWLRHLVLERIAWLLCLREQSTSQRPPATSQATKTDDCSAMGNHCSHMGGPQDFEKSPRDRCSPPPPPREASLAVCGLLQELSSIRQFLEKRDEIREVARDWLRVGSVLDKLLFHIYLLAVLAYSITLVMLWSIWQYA
Procedure, shortened: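 Displacement of radioligand measured in membranes expressing the human receptor; for 5-HT2A, [3H]-ketanserin was displaced. Compounds in DMSO were first screened at 10,000 nM, then Ki determined in triplicate on separate plates, each with a known receptor ligand as positive control.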

5-HT2A [3] = target: T2, 5-HT2A; test: Ca2+ flux assay, 5-HT2A; format: cell-based; set-up: expressed in transfected cells; conditions: for EC50: 5-HT2A EC50, nM, Ca2+ flux; for Emax: read-out: 5-HT2A Emax % 5-HT, Ca2+ flux
5-HT2B [4] = target: T4, 5-HT2B (Homo sapiens, UniProt P41595); test: Ca2+ flux assay, 5-HT2B; format: cell-based; set-up: expressed in transfected cells; conditions: Ca2+ flux; for Emax: read-out: 5-HT2B Emax % 5-HT
T4 sequence (P41595 whole entry): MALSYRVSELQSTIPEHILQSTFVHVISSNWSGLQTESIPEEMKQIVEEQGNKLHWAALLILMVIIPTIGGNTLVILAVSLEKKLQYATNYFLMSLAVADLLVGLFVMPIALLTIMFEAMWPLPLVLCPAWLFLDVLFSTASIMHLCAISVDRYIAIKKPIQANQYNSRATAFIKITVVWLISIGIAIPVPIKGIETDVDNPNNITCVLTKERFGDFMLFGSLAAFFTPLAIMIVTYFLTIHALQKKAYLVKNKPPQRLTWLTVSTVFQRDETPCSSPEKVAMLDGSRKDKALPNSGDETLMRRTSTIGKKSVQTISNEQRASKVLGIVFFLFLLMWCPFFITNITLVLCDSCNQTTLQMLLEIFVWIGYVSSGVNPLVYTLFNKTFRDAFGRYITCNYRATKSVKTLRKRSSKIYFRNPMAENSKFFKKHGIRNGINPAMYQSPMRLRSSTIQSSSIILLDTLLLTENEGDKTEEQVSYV

5-HT2C [5] = target: T5, 5-HT2C (Homo sapiens, UniProt P28335); test: Ca2+ flux assay, 5-HT2C; format: cell-based; set-up: expressed in transfected cells; conditions: for EC50: 5-HT2C EC50, nM; for Emax: read-out: 5-HT2C Emax % 5-HT
T5 sequence (P28335 33-458): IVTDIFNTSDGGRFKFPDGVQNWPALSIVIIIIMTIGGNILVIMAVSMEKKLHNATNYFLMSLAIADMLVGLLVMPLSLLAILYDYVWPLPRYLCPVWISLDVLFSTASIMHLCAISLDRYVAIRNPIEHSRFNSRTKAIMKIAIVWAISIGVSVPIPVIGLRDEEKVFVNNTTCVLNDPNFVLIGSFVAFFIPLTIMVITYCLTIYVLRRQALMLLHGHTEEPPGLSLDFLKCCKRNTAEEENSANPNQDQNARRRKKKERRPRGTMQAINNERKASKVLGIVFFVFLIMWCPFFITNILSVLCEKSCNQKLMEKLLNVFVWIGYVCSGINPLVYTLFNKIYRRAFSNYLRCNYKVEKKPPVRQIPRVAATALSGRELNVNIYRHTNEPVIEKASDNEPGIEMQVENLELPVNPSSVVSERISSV

5-HT2B [6] = target: T4, 5-HT2B; test: Competitive radioligand binding (NIMH PDSP); set-up: expressed in transfected cells
5-HT2C [7] = target: T5, 5-HT2C; test: Competitive radioligand binding (NIMH PDSP); set-up: expressed in transfected cells

| Compound | 5-HT2A/5-HT2c Selectivity Factor ΔLog(Emax/EC50) (5-HT2A [1]) | Ki (5-HT1A) [nM] | Ki (5-HT1B) [nM] | Ki (5-HT1D) [nM] | Ki (5-HT1e) [nM] | Ki (5-HT2A [2]) [nM] | Ki (5-HT3) [nM] | EC50 (5-HT2A [3]) [nM] | Emax (5-HT2A [3]) [%] | 5-HT2B EC50, nM (5-HT2B [4]) | Emax (5-HT2B [4]) [%] | EC50 (5-HT2C [5]) [nM] | Emax (5-HT2C [5]) [%] | Ki (5-HT2B [6]) [nM] | Ki (5-HT2C [7]) [nM] |
| --- | --- | --- | --- | --- | --- | --- | --- | --- | --- | --- | --- | --- | --- | --- | --- |
| COc1cc([N+](=O)[O-])c(OC)cc1CCNCc1cccc(C)c1 [25N-NB-3-Me (22), [2-(2,5-dimethoxy-4-nitrophenyl)ethyl][(3-methylphenyl)methyl]amine] | 29.1 | 1780 | > 10000 | 933 | > 10000 | 0.209 | > 10000 | 2.27 | 54 ± 1 | No activity | < 10 | 14.3 | 15 ± 2 | 2.88 | 39.8 |
| COc1cc([N+](=O)[O-])c(OC)cc1CCNCc1cccc(F)c1OC [25N-NB-2-MeO-3-F (19), [2-(2,5-dimethoxy-4-nitrophenyl)ethyl][(3-fluoro-2-methoxyphenyl)methyl]amine] | 33.8 | 1000 | > 10000 | > 10000 | > 10000 | 7.41 | > 10000 | 2.35 | 83 ± 1 | No activity | < 10 | 74.5 | 77 ± 2 | 25.1 | 40.7 |
| COc1cc([N+](=O)[O-])c(OC)cc1CCNCc1ccccc1I [25N-NBI (10)] | 406 | 1000 | > 10000 | > 10000 | > 10000 | 5.37 | > 10000 | 3.29 | 88 ± 1 | No activity | < 10 | 682 | 45 ± 2 | 20 | 43.7 |
